Test results taken from patent US20060233935A1, “Rhamnolipids in bakery products” (priority 2002, published 2006).

Assay: Non-dairy cream filling evaluation (Example 16)
Settings: 0.01% (w/w) in liquid preparation
Protocol: Polysorbate 60 has been replaced by rhamnolipids in non-dairy cream filling for pastries.
The following preparation process was used: The starch is mixed with the water, sugar and glucose syrup are added together with the emulsifier and titanium dioxide. After mixing until homogenous all the other ingredients are added and mixed again. The total mixture is heated until jellification of the starch.
Bake stability (180° C., 30 minutes), color, taste, speed of incorporation of fat into the mixture and possible separation of fat during conservation are evaluated (Table 16).

## Polysorbate 60
  Stability during conservation: Stable during
